Results as given in patent US11814376B2, “Hepatitis b core protein modulators” (Assembly Biosciences, Inc., priority 2015, dated 2023).

Columns and labels:
[1] = tested on: HBV viral load in AD38 cells; assay: Viral load production in AD38 cells, quantitative PCR of the core sequence in supernatant; format: cell-based; conditions: 10 μM compound, 6 days at 37° C., supernatant qPCR, relative to DMSO control; for activity at 10 µM: Hepatitis B virus, 144 h, read-out: AD38 Viral Load (%) (VL with cmpd/VL in DMSO control) at 10 μM
[2] = tested on: AD38 cells; assay: Viability of AD38 cells (Promega CellTiter-Glo); format: cell-based; conditions: 10 μM compound, 6 days, CellTiter-Glo luminescence normalized to DMSO control (100%)
Procedure, shortened: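 After 6 days of compound exposure at 37° C (compound added as 10× solution in 10% DMSO; 50,000 cells/well, collagen-coated), medium was replaced with tetracycline-free DMEM/F12, 2% FBS, 1% DMSO. CellTiter-Glo luminescence was then recorded and normalized to DMSO-treated wells as 100% viability.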

Compound | activity at 10 µM [1] [%] | AD38 Viability Normalized Result (cmpd/DMSO %) at 10 μM [2] [%] | AD38 Viral Load (%) (VL with cmpd/VL in DMSO control) at 10 μM [1]
O=C(NCc1cnc(-c2ccc3ncccc3c2)s1)c1ccc2c(c1)NC(=O)c1ccccc1O2 [compound 1831] | 3.8 | 112 | –
CN(CCCOc1ccc(-c2ncc(CNC(=O)c3ccc4c(c3)NC(=O)c3ccccc3S4(=O)=O)s2)cc1)C1CC1 [compound 11092] | 0.5 | 101 | –
Cl.NCCNC(=O)c1ccc(-c2ncc(CNC(=O)c3ccc4c(c3)NC(=O)c3ccccc3S4(=O)=O)s2)cc1 [compound 11017, N-((2-(4-((2-aminoethyl)carbamoyl)phenyl)thiazol-5-yl)methyl)-11-oxo-10, 11-dihydrodibenzo [b, f] [1, 4] thiazepine-8-carboxamide 5,5-dioxide hydrochloride] | 21 | 86 | –
CC(C)(C)c1ncc(CNC(=O)c2ccc3c(c2)NC(=O)c2ccccc2S3)s1 [compound 1555] | 1 | 89 | –
O=C(NCc1cnc(-c2ccc(S(=O)(=O)CCCO)cc2)s1)c1ccc2c(c1)NC(=O)c1ccccc1S2(=O)=O [11063-B, N-((2-(4-((3-hydroxypropyl)sulfonyl)phenyl)thiazol-5-yl)methyl)-11-oxo-10, 11-dihydrodibenzo [b, f] [1, 4] thiazepine-8-carboxamide 5,5-dioxide] | 5.4 | 95 | –
O=C(NCc1cnc(-c2ccc(C(=O)NC3CC3)cc2)s1)c1ccc2c(c1)NC(=O)c1ccccc1S2(=O)=O [compound 1949] | 2.9 | 99 | –
O=C(NCc1cnc(-c2ccccc2CCO)s1)c1ccc2c(c1)NC(=O)c1ccccc1S2(=O)=O [compound 1839, N-((2-(2-(2-hydroxyethyl)phenyl)thiazol-5-yl)methyl)-11-oxo-10, 11-dihydrodibenzo [b, f] [1, 4] thiazepine-8-carboxamide 5,5-dioxide] | 6.6 | 96 | –
COC(=O)c1ccc(-c2ncc(CNC(=O)c3ccc4c(c3)NC(=O)c3ccccc3S4)s2)cc1 [1599-A, methyl 4-(5-((11-oxo-10, 11-dihydrodibenzo [b, f] [1, 4]thiazepine-8-carboxamido)methyl)thiazol-2-yl) benzoate] | 50.9 | 98 | –
CCc1cc2c(cc1C(=O)NCc1cnc(C(F)(F)F)s1)NC(=O)c1ccccc1S2(=O)=O [compound 11041] | 47.4 | 94 | –
CCN1c2ccc(C(=O)NCc3cnc(-c4ccc(C#N)cc4)s3)cc2NC(=O)c2ccccc21 [compound 1975] | 1 | 63 | –
COc1ccc(Cc2ncc(CNC(=O)c3ccc4c(c3)NC(=O)c3ccccc3O4)s2)cc1 [1835-A, N-((2-(4-methoxybenzyl)thiazol-5-yl)methyl)-11-oxo-10, 11-dihydrodibenzo [b, f] [1, 4] oxazepine-8-carboxamide] | 0.3 | 89 | –
Cl.NCCCSc1ccc(-c2ncc(CNC(=O)c3ccc4c(c3)NC(=O)c3ccccc3S4(=O)=O)s2)cc1 [compound 11007, N-((2-(4-((3-aminopropyl)thio)phenyl)thiazol-5-yl)methyl)-11-oxo-10, 11-dihydrodibenzo [b, f] [1, 4] thiazepine-8-carboxamide 5,5-dioxide hydrochloride] | 2 | 101 | –
O=C(NCc1cnc(-c2cnc(O)nc2)s1)c1ccc2c(c1)NC(=O)c1ccccc1O2 [compound 1709, N-((2-(2-hydroxypyrimidin-5-yl)thiazol-5-yl)methyl)-11-oxo-10, 11-dihydrodibenzo [b, f] [1, 4] oxazepine-8-carboxamide] | 51.1 | 94 | –
O=C(NCc1cnc(N2CCS(=O)(=O)CC2)s1)c1ccc2c(c1)NC(=O)c1ccccc1O2 [compound 1866] | 2.9 | 98 | –
O=C(NCc1cnc(N2CCCCC2)s1)c1ccc2c(c1)NC(=O)c1ccccc1S2(=O)=O [compound 1905] | 0.3 | 109 | –
O=C(NCc1scnc1C(F)(F)F)c1ccc2c(c1)NC(=O)c1ccccc1S2 [compound 1431] | 5.5 | 103 | –
Cc1cc(-c2ncc(CNC(=O)c3ccc4c(c3)NC(=O)c3ccccc3O4)s2)ccc1O [compound 1736, N-((2-(4-hydroxy-3-methylphenyl)thiazol-5-yl)methyl)-11-oxo-10, 11-dihydrodibenzo [b, f] [1, 4] oxazepine-8-carboxamide] | 6.8 | 94 | –
Cl.O=C(NCc1cnc(-c2ccc(N3CCNCC3)cc2)s1)c1ccc2c(c1)NC(=O)c1ccccc1S2(=O)=O [compound 11018, 11-oxo-N-((2-(4-(piperazin-1-yl)phenyl)thiazol-5-yl)methyl)-10, 11-dihydrodibenzo [b, f] [1, 4] thiazepine-8-carboxamide 5,5-dioxide hydrochloride] | 3.9 | 98 | –

Compound | activity at 10 µM [1] [%] | AD38 Viability Normalized Result (cmpd/DMSO %) at 10 μM [2] [%] | AD38 Viral Load (%) (VL with cmpd/VL in DMSO control) at 10 μM [1]
CN(C)C(=O)c1ccc(-c2ncc(CNC(=O)c3ccc4c(c3)NC(=O)c3ccccc3S4(=O)=O)s2)cc1 [compound 1944] | 2.5 | 93 | –
CN(C)CCOc1ncc(CNC(=O)c2ccc3c(c2)NC(=O)c2ccccc2O3)s1 [compound 1614, N-((2-(2-(dimethylamino)ethoxy)thiazol-5-yl)methyl)-11-oxo-10, 11-dihydrodibenzo [b, f] [1, 4] oxazepine-8-carboxamide] | 8.5 | 98 | –
O=C(NCc1cnc(N2CCOCC2)s1)c1ccc2c(c1)NC(=O)c1ccccc1S2 [compound 1598] | 1.4 | 97 | –
O=C(NCc1cnc(N2CCC(O)CC2)s1)c1ccc2c(c1)NC(=O)c1ccccc1O2 [compound 1865] | 1 | 94 | –
NS(=O)(=O)c1ccc(-c2ncc(CNC(=O)c3ccc4c(c3)NC(=O)c3ccccc3S4(=O)=O)s2)cc1 [compound 1856] | 1.3 | 96 | –
O=C(NCc1cnc(-c2ccc(O)cc2)s1)c1ccc2c(c1)NC(=O)c1ccccc1C2 [compound 1734] | 10.6 | 96 | –
Cc1nc(C)c(CNC(=O)c2ccc3c(c2)NC(=O)c2ccccc2O3)s1 [compound 1769] | 43.3 | 101 | –
CC(C)(C)OC(=O)NCCCSc1ccc(-c2ncc(CNC(=O)c3ccc4c(c3)NC(=O)c3ccccc3S4(=O)=O)s2)cc1 [11007-A, tert-butyl (3-((4-(5-((5,5-dioxido-11-oxo-10, 11-dihydrodibenzo [b, f] [1, 4]thiazepine-8-carboxamido)methyl)thiazol-2-yl)phenyl)thio)propyl) carbamate] | – | 75 | 0.9
O=C(NCc1cnc(-c2ccc(O)c(Cl)c2)s1)c1ccc2c(c1)NC(=O)c1ccccc1O2 [compound 1702] | 5.3 | 102 | –
Cc1c(C(=O)NCc2cnc(-c3ccccn3)s2)ccc2c1NC(=O)c1ccccc1S2(=O)=O [compound 11077] | 0.9 | 90 | –
Cc1c(C(=O)NCc2cnc(-c3ccc(C(N)=O)cc3)s2)ccc2c1NC(=O)c1ccccc1S2(=O)=O [compound 1878, N-((2-(4-carbamoylphenyl)thiazol-5-yl)methyl)-9-methyl-11-oxo-10, 11-dihydrodibenzo [b, f] [1, 4] thiazepine-8-carboxamide 5,5-dioxide] | 1 | 103 | –
CN(C)CC1(COc2ccc(-c3ncc(CNC(=O)c4ccc5c(c4)NC(=O)c4ccccc4S5(=O)=O)s3)cc2)CC1 [compound 11112] | 4 | 100 | –
CN(C)c1ncc(-c2ncc(CNC(=O)c3ccc4c(c3)NC(=O)c3ccccc3S4(=O)=O)s2)cn1 [compound 1675] | 2.3 | 115 | –
O=C1CCc2cc(-c3ncc(CNC(=O)c4ccc5c(c4)NC(=O)c4ccccc4S5(=O)=O)s3)ccc2N1 [compound 1951] | 1.8 | 101 | –
O=C(NCc1cnc(-c2cccnc2)s1)c1ccc2c(c1)NC(=O)c1ccccc1S2(=O)=O [compound 1624] | 0.8 | 98 | –
CNCCCOc1ccc(-c2ncc(CNC(=O)c3ccc4c(c3)NC(=O)c3ccccc3S4(=O)=O)s2)cc1 [compound 1989, N-((2-(4-(3-(methylamino)propoxy)phenyl)thiazol-5-yl)methyl)-11-oxo-10, 11-dihydrodibenzo [b, f] [1, 4] thiazepine-8-carboxamide 5,5-dioxide] | 2.5 | 90 | –
CN(C)CCOc1ncc(CNC(=O)c2ccc3c(c2)NC(=O)c2ccccc2S3(=O)=O)s1 [compound 1586, N-((2-(2-(dimethylamino)ethoxy)thiazol-5-yl)methyl)-11-oxo-10, 11-dihydrodibenzo [b, f] [1, 4] thiazepine-8-carboxamide 5,5-dioxide] | 27.9 | 83 | –
